Reference: patent publication US6756408B2, “Methods and materials for protecting against myocardial cell damage related to coronary intervention by regional beta blocker therapy” (Board of Regents, The University of Texas System, priority 2001, dated 2004)

System: patients with coronary artery disease undergoing PCI
Test: Randomized, double-blind, placebo-controlled trial of intracoronary propranolol before percutaneous coronary intervention
Type: in vivo
Experimental: Study population: This study was a randomized, double-blind, placebo-controlled trial. Patients with coronary artery disease undergoing PCI were considered for inclusion. Patients on chronic beta blockers were included. Exclusion criteria included myocardial infarction (“MI”) within 24 h or recent MI with elevation of CK or CKMB at time of randomization (a normal CK and CKMB and elevated troponin T allowed inclusion); cardiogenic shock; systolic blood pressure<100 mm Hg; heart rate<50/min; NYHA class III or IV heart failure; severe left ventricular dysfunction (ejection fraction<30%); severe renal insufficiency (creatinine>3.0 mg/dl); allergy to propranolol; or second planned intervention within 30 days. Patients with chronic obstructive pulmonary disease (“COPD”) were not specifically excluded.
Study protocol: Before initiation of PCI, all patients were pretreated with aspirin and received weight-adjusted heparin, with a target activated clotting time of >300 seconds in the absence of a glycoprotein IIb/IIIa (“GP IIb/IIIa”) inhibitor and 200-300 seconds with a GP IIb/IIIa inhibitor, which was allowed but not mandated.
Patients were randomized in a 1:1 ratio to receive either placebo or propranolol. The randomization allocation code was generated using complete block design. Randomization was performed after coronary angiography confirmed the need for PCI. In patients with a total occlusion, the lesion was crossed with a guide wire before randomization.
Study drug kits were packaged by hospital pharmacy to be indistinguishable from each other with a concentration of 1 mg/ml; the identity of the injectate (i.e., propranolol or placebo) was not known to the investigators or to the patients. […] The study drug was thus delivered directly into the myocardial region supplied by the stenotic coronary artery undergoing PCI. Balloon inflation was performed after the IC injection of propranolol or placebo. Blood samples were taken prior to PCI, immediately after PCI, and every 8 h for 24 h to assay CK and CKMB. Blood samples were taken at 16 h for troponin T analysis. Additional blood levels were obtained when any patient experienced possible ischemic symptoms. The 30-day contact was made by clinic visit or telephone interview.
Study endpoints: The primary endpoint was the incidence of post-procedural elevation of CKMB above the upper limit of normal (“ULN”). The “threshold” for the development of an excess in adverse events relative to the level of CKMB appears to be a continuous function beginning with any elevation of CKMB or troponin T with the frequency of long-term adverse events, particular death, increasing with the level of enzyme rise (Simoons, which is hereby incorporated by reference). Secondary endpoints included (1) incidence of post-procedure total CK elevation, (2) incidence of troponin T elevation (in those patients with normal baseline values), (3) median peak values of CK, CKMB, and troponin T, (4) rescue therapy with GP IIb/IIIa inhibitors, and (5) combination of death from any cause, myocardial necrosis, recurrent MI within 30 days, or severe myocardial ischemia requiring urgent coronary-artery bypass surgery or target lesion revascularisation (“TLR”) within 30 days of intervention (“MACE”).
Urgent target lesion revascularisation included any coronary artery bypass graft surgery or a second PCI on the original target lesion performed for recurrent myocardial ischemia. Successful PCI was defined as post-procedure residual stenosis at the target lesion<30% of reference vessel diameter without major adverse outcome (death, Q wave MI, emergent CABG). Major bleeding was defined as bleeding requiring transfusion, surgery, prolongation of hospital stay, or >8% drop in hematocrit after PCI. Rescue GP IIb/IIIa use was defined as drug given after the guide wire passage during PCI.

[1] = patients with mechanical complications, n = 17
[2] = patients with no mechanical complication, n = 58

CC(C)NCC(O)COc1cccc2ccccc12 (stereo not shown) [Propranolol, propranolol]
Change in heart rate or blood pressure after IC injection (15 μg/kg intracoronary): no change
Incidence of elevation of CKMB (>5 ng/ml) after PCI (0.015 mg/kg): 17%
Incidence of elevation of Troponin T (>0.10 ng/ml) after PCI (0.015 mg/kg, 16 h): 13%
Death (30 days after PCI, n = 75): 0%
Recurrent MI (30 days after PCI, n = 75): 1%
Urgent/emergent TLR (30 days after PCI, n = 75): 0%
Significant bleeding (after PCI): 3%
Combined 30d MACE (death, myocardial necrosis, recurrent MI, urgent TLR within 30 days, n = 75): 18%
"Rescue" GP IIb/IIIa inhibitors use required (drug given after guide wire passage during PCI): 11%
Adverse systemic effects after IC injection (including respiratory difficulties in 5 patients with history of COPD or asthma): no adverse systemic effects
Heart rate, post drug (largest change after drug administration, baseline 67 ± 11): 66 ± 11 beats/min
Systolic BP, post drug (largest change after drug administration, baseline 139 ± 25): 137 ± 23 mmHg
CKMB elevation ≧3 times upper limit of normal (number of patients out of 75): 7 patients
Elevation of CK (% of patients) [1]: 18%
Elevation of CKMB (% of patients) [1]: 41%
Elevation of troponin T (% of patients) [1]: 35%
Elevation of CK (% of patients) [2]: 0%
Elevation of CKMB (% of patients) [2]: 10%
Elevation of troponin T (% of patients) [2]: 5%
Median value of CKMB (post PCI, all patients): 2.1
Median value of total CK (post PCI, all patients): 67
Median value of troponin T (post PCI, all patients): 0.03
Favorable effect on preventing myocardial necrosis, subgroup analysis (relative risk by subgroups, FIG. 3): broadly applicable
Recurrent MI (number of patients) (within 30 days): 1 patients
Urgent TLR required (number of patients) (within 30 days): 0 patients
